The values below come from article PMC9532951, “Identification and characterization of a novel SNAT2 (SLC38A2) inhibitor reveals synergy with glucose transport inhibition in cancer cells” (Frontiers in Pharmacology, 2022).

One assay has as its system HPAFII cells. The assay is described as follows: Growth assay (IncuCyte confluence), HPAFII. The assay is classed as cell-based, human. More on the design: key to Growth (Figure 6A) / cell confluence (Figure 6F): % confluence. The note with it: CB-839 10uM, replicates 1-3. As for the experimental part: (§1) Cells were seeded on 96-well flat bottom plates at approximately 3000 cells/well and incubated in growth medium (DMEM/F12 supplemented with 10% FBS, 2 mM glutamine) for 24 h. The next day, the growth medium was aspirated and exchanged with 300 μL/well of growth medium containing compounds at the indicated concentration. For live cell analysis, plates were placed in the IncuCyte system (Essen Bioscience), which was housed in a cell incubator (37°C, humidified atmosphere composed of 95% air and 5% CO2) and confluence measured at 6-h intervals or at the assay endpoint when untreated control cells reached a confluency >90%. Antibiotics (10 U/mL penicillin and 10 μg/ml streptomycin) were included in the treatment solutions.
(§2) Growth curves were generated using the Gompertz function of OriginPro software: y=ae^−e^(−k(x−xc))
(§3) Where a is the maximum confluence or upper asymptote, k is the growth rate coefficient, xc is the time point at which 50% confluence is reached (inflection point) and e is Euler’s number. Cell growth data are shown as % confluence.
(§4) Synergism between drug combinations was quantified using ZIP synergy scoring as calculated by SynergyFinder ([Yadav et al., 2015]).

The subject of another assay is MDA-MB-231 cells. The assay is described as follows: Growth assay (IncuCyte confluence), MDA-MB-231. The assay is classed as cell-based, human. More on the design: key to Growth (Figure 6A) / cell confluence (Figure 6F): % confluence. The conditions noted are these: MDA-MB-231; CB-839 10uM; replicates 1-3. As for the experimental part: as §1, §2, §3, §4
For assay [1], the system named is SNAT1/2. The assay is described as follows: FMP assay: depolarisation by amino acid substrates in amino acid depleted HCC1806 cells. The assay is classed as cell-based, human. The note with it: for FMP fluorescence reading: amino acid 1 mM final. As for the experimental part:
The FLIPR Membrane Potential Blue Explorer Kit (Molecular Devices) was used to characterise inhibitors and to optimise a high-throughput compound screen. Cells were seeded at approximately 60,000 cells/well on a 96-well plate and allowed to attach and grow overnight in a cell incubator. […] Cells were then washed once with mHBSS and incubated with 50 µl of the mHBSS-resuspended FMP assay dye and 50 µl of mHBSS (with or without inhibitors) and incubated at room temperature for 30 min. The plate was then placed in an EnSpire Multimode plate reader (PerkinElmer) and four sequential measurements of fluorescence were recorded as a baseline reference. Immediately after the baseline measurements were taken, 25 µl of 5 mM glutamine dissolved in mHBSS was injected into each well and the plate was shaken orbitally for 5 s before a series of consecutive fluorescence measurements were taken. The excitation wavelength was set to 530 nm and the emission was detected at 565 nm. […] After the assay was complete, the liquid content of the plate was carefully removed, and the cell monolayer inspected to ensure it remained intact throughout the course of the assay.

The next assay deals with T1, SNAT1 (Homo sapiens, UniProt Q9H2H9).
T1 construct: SNAT1 remained active as indicated by the Na^+-dependence of alanine uptake; endogenous in cells; host or cells: HCC1806 clone D126 (ASCT2ko, SNAT2ko), amino acid depleted for 24 h
T1 sequence (Q9H2H9 1-487): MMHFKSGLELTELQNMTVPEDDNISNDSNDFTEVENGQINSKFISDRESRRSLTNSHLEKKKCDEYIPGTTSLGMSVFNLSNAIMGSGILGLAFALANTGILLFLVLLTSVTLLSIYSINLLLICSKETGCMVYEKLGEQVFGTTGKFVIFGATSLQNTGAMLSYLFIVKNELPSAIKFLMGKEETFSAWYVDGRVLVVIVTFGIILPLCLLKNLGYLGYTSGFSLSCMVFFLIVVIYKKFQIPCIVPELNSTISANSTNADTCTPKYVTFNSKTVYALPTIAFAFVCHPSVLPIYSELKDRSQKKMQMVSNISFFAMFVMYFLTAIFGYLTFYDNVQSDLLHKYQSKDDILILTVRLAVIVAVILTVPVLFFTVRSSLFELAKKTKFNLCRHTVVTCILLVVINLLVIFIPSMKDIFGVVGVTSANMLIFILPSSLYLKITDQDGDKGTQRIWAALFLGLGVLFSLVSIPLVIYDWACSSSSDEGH
Nature of the assay: Alanine uptake in HCC1806 D126 (ASCT2ko, SNAT2ko) cells. The format is cell-based. As to the method:
(§5) To delete the SNAT2 (SLC38A2) gene in modified HCC1806 cells (clone C10 nullizygous for ASCT2 ([Broer et al., 2019])), the GeneArt CRISPR Nuclease Vector with OFP Reporter Kit (Invitrogen; A21174) was employed and complementary 19–20 bp long single-stranded oligonucleotides with overhangs were designed to produce a guide RNA (gRNA) for the Cas9 nuclease that would target exon 7 of the SNAT2 gene. Colonies were analysed by sequencing using the U6 primer included in the GeneArt CRISPR Nuclease Vector with OFP Reporter kit. Plasmids that contained the correct CRISPR nuclease construct were then used to transfect HCC1806 cells with Lipofectamine 2000 (Invitrogen). Prior to transfection, medium was replaced with 2 ml of fresh DMEM/F-12 (supplemented with 10% heat-inactivated FBS and 2 mM glutamine). Plasmid DNA (4 µg) and 10 µL of Lipofectamine 2000 were incubated separately for 5 min at room temperature in 500 µl of Opti-MEM (Invitrogen) before being combined and incubated for a further 30 min at room temperature. The DNA-Lipofectamine complex was then added to the cells in a dropwise manner and allowed to be absorbed over 6 h at 37°C, after which the medium was renewed with fresh DMEM/F-12. Cells were checked for red fluorescence using an EVOS FL cell imaging system (Thermo Fisher Scientific) 48–72 h post transfection. Subsequently, cells were detached using 0.25% Trypsin EDTA. After harvesting and washing thrice with PBS (pH 7.4), cells were resuspended in PBS (pH 7.4) supplemented with 5 mM glucose and 1% dialysed and heat inactivated FBS and passed through a 100 μm cell strainer. The cell filtrate was then pelleted once more and resuspended in the same buffer. Cells were sorted using an ARIA II FACS machine and individually dispensed into the wells of a 96-well plate. Nullizygous clones were identified using a series of assays including the FLIPR membrane potential assay, western blotting and sequencing.
(§6) Functional characterisation of plasma membrane transporters in human cancer cells was determined at 37°C using an array of radiolabelled amino acid substrates. Modified Hanks HEPES-buffered salts solution (mHBSS; 137 mM NaCl; 5.4 mM KCl; 2.7 mM K2HPO4; 1 mM CaCl2; 0.5 mM MgCl2; 0.44 mM KH2PO4; 0.4 mM MgSO4; 5 mM D-glucose; 5 mM HEPES; pH 7.4) was used to wash and incubate cells where sodium dependent transport was measured, while N-methyl-D-glucamine (NMDG) and potassium salts substituted sodium in NMDG mHBSS to measure sodium independent uptake. For the assay, cells were seeded in 35 mm dishes and, once confluent, were washed thrice with warm mHBSS solution and incubated with mHBSS containing an 100 µM amino acid at a final specific activity of ≥2000 cpm/nmol (U-[^14C]amino acids were from PerkinElmer). After 6 min, cells were washed thrice with ice-cold mHBSS, lysed with 500 µl of 0.1 M HCl, detached with a cell scraper and triturated. A 400 µl aliquot was used for scintillation counting, while the remainder was saved for protein mass quantification by Bradford assay. Transport rates were normalised to the protein content of the culture dish.

The test system of a further assay is SNAT1 and SNAT2. The assay is described as follows: FMP assay in HCC1806 clones C10 (ASCT2ko) and D126 (ASCT2ko, SNAT2ko). The assay is classed as cell-based, human. The conditions noted are these: MeAIB 10 mM; glutamine 1 mM. As for the experimental part: as §5
The FLIPR Membrane Potential Blue Explorer Kit (Molecular Devices) was used to characterise inhibitors and to optimise a high-throughput compound screen. Cells were seeded at approximately 60,000 cells/well on a 96-well plate and allowed to attach and grow overnight in a cell incubator. The next day, the cells were washed once with mHBSS and incubated in a starvation medium (composed of mHBSS with 1% dialysed heat-inactivated FBS, 23 mM NaHCO3, 10 U/ml penicillin and 10 μg/ml streptomycin) for 24 h. Cells were then washed once with mHBSS and incubated with 50 µl of the mHBSS-resuspended FMP assay dye and 50 µl of mHBSS (with or without inhibitors) and incubated at room temperature for 30 min. The plate was then placed in an EnSpire Multimode plate reader (PerkinElmer) and four sequential measurements of fluorescence were recorded as a baseline reference. Immediately after the baseline measurements were taken, 25 µl of 5 mM glutamine dissolved in mHBSS was injected into each well and the plate was shaken orbitally for 5 s before a series of consecutive fluorescence measurements were taken. The excitation wavelength was set to 530 nm and the emission was detected at 565 nm. The Δ fluorescent signal reported in the figures was taken 30 s after substrate addition. After the assay was complete, the liquid content of the plate was carefully removed, and the cell monolayer inspected to ensure it remained intact throughout the course of the assay.

In the next assay the test system is SNAT2. Nature of the assay: Radiolabelled proline uptake in amino acid depleted SKOV3 cells. The format is cell-based, human. The conditions noted are these: for inhibition of proline uptake: 10 mM. As for the experimental part: as §6
IC50 were calculated using equation y=ymax(1−x/x+IC50)

Assay [2] deals with SNAT1/2. Nature of the assay: [14C]glutamine uptake in HCC1806 cells. The format is cell-based, human. As for the experimental part:
as §6

Values joined by “and” are separate entries in the source; they are usually repeats but may differ in a detail not shown here. Equal entries are not always repeated.

`O=C(Cc1cccc(OC(F)(F)F)c1)Nc1ccc(CCCCc2nnc(NC(=O)Cc3ccccn3)s2)nn1` [CB-839]: the “cell confluence (Figure 6F)” value in the assay on HPAFII cells is 88.1 and 96.7 and 88.9; in the assay with MDA-MB-231 cells, 98.45 and 98.5 (2×).

For `CNC(C)(C)C(=O)O` [MeAIB, N-methyl-aminoisobutyric acid], in the assay on SNAT1/2 [1] (1 mM), the “FMP response as substrate” value is “weaker signal”. The FMP fluorescence reading in the assay with SNAT1/2 [1] (t=0 s) is 49084 and 50100 and 40663; with SNAT1/2 [1] (t=15 s), 81984 and 86589 and 75934; with SNAT1/2 [1] (t=30 s), 86634 and 91101 and 78520; in the assay with SNAT1/2 [1] (t=45 s), 90066 and 93398 and 80464; with SNAT1/2 [1] (t=60 s), 92350 and 95113 and 80900; in the assay on SNAT1/2 [1] (t=75 s), 92919 and 96006 and 80942. The FMP fluorescence reading with SNAT1/2 [1] (t=90 s) was 93944 and 96169 and 81331; in the assay with SNAT1/2 [1] (t=105 s) it was 93680 and 96448 and 80487; in the assay on SNAT1/2 [1] (t=120 s), 93733 and 95947 and 80206; in the assay on SNAT1/2 [1] (t=135 s) it was 93032 and 95155 and 78841; in the assay on SNAT1/2 [1] (t=-15 s) it was 48467 and 50314 and 40490; with SNAT1/2 [1] (t=-30 s, replicates 1-3), 48576 and 50230 and 40217. Besides, the “Alanine uptake (nmol / mg protein x 6 min)” value at SNAT1 (Figure 4B, 10mM, replicates 1-3) is 11.1023 nmol / mg protein x 6 min and 10.5839 nmol / mg protein x 6 min and 9.888 nmol / mg protein x 6 min. For the same compound, the “inhibition of alanine uptake” value against SNAT1 (HCC1806 D126, Figure 4B, betaine and MeAIB 10 mM) is on record as “inhibition”. For the same compound, in the assay on SNAT1 and SNAT2, the “FMP signal in D126 cells (ASCT2ko, SNAT2ko) compared to C10” value is 42%. The results for the “inhibition of proline uptake” value in the assay with SNAT2 (Figure 4A) and in the assay with SNAT2 (Figure 4D (15 h starvation)) were “strong inhibition” and “almost completely”, respectively. The “Proline uptake (nmol / mg protein x 6 min)” value with SNAT2 (Figure 4A, 10mM, replicates 1-3) was 3.275 nmol / mg protein x 6 min and 3.216 nmol / mg protein x 6 min and 2.965 nmol / mg protein x 6 min; in the assay on SNAT2 (Figure 5B, reference inhibitors, replicates) it was 1.301 nmol / mg protein x 6 min and 1.471 nmol / mg protein x 6 min and 1.547 nmol / mg protein x 6 min. Moreover, the Glutamine uptake is 39.8616 nmol / mg protein x 6 min and 35.3498 nmol / mg protein x 6 min and 40.7838 nmol / mg protein x 6 min in the assay with SNAT1/2 [2] (AA+ (growth medium), 100 µM glutamine, replicates 1-3); 8.629 nmol / mg protein x 6 min and 3.7831 nmol / mg protein x 6 min and 8.492 nmol / mg protein x 6 min with SNAT1/2 [2] (AA- (starvation medium 24 h), 100 µM glutamine, replicates 1-3). The “Glutamine uptake (nmol / mg protein x 6 min)” value with SNAT1/2 [2] (Figure 3D, replicates 1-3) is 35.1959 nmol / mg protein x 6 min and 29.1234 nmol / mg protein x 6 min and 25.7847 nmol / mg protein x 6 min. The “reduction of glutamine uptake” value in the assay with SNAT1/2 [2] (amino acid depleted HCC1806 cells (24 h), 100 µM glutamine) turned out to be 80%. For the same compound, the “inhibition of glutamine uptake” value in the assay on SNAT1/2 [2] (fed HCC1806 cells) was “barely inhibited”.
